From patent US12629387B2, “Composition of antiviral agent for use in prophylactic or post-exposure treatment of infectious or respiratory diseases” (InspirMed Corp., priority 2020, dated 2026)

Experiments:
[1] = Pharmacokinetics and tissue distribution study of HCQ in SD rats after single-dose IV/IT Free HCQ or IT TLC19 (Study No. PK20021); details: for concentration at 24 h / AUC(0-t) / Cmax: Sprague-Dawley, rat, in vivo; for concentration at 24 h: 0.59 mg/animal; for AUC(0-t) / Cmax: 0.59 mg; for Cmax: Cmax of HCQ; for Cmax / Tmax of HCQ / AUC0-72 of HCQ: Free HCQ, 0.590 mg/animal; for Tmax of HCQ: median; for mean HCQ concentration in lung, starting value of decline: start of the first 24 hours post-dose
[2] = system: SARS-CoV-infected human airway epithelial (HAE) cells; details: read-out: in vitro antiviral EC50; cited from earlier work

CCN(CCO)CCCC(C)Nc1ccnc2cc(Cl)ccc12 (stereo not drawn) [Free HCQ, hydroxychloroquine]
concentration at 24 h [1]: 2160 ng/g | AUC(0-t) ([1]; inhaled or intranasal): 2260 ng·h/mL | Cmax ([1]; inhaled or intranasal, rat blood, IT administration): 477 ng/mL | Cmax ([1]; inhaled or intranasal, rat heart, IT administration): 3800 ng/g | Cmax ([1]; inhaled or intranasal, rat lung, IT administration): 47800 ng/g | AUC(0-t) ([1]; iv): 2330 ng·h/mL | Cmax ([1]; iv, rat blood, IV injection): 433 ng/mL | Cmax ([1]; iv, rat heart, IV injection): 4500 ng/g | Cmax ([1]; iv, rat lung, IV injection): 9400 ng/g | concentration at 24 h ([1]; iv): 3770 ng/g | overall systemic exposures (Cmax and AUC), IV group compared with IT group ([1]; rat blood, Free HCQ 0.590 mg/animal): similar | Tmax of HCQ ([1]; rat blood, IT administration): 15 min | Tmax of HCQ ([1]; rat blood, IV injection): 15 min | AUC0-72 of HCQ ([1]; rat heart, IT administration): 64.2 µg·h/g | Tmax of HCQ ([1]; rat heart, IT administration): 15 min | AUC0-72 of HCQ ([1]; rat heart, IV injection): 67.2 µg·h/g | Tmax of HCQ ([1]; rat heart, IV injection): 15 min | mean HCQ concentration in lung, starting value of decline ([1]; rat lung, Free HCQ IT group): 47.8 µg/g | mean HCQ concentration in lung, starting value of decline ([1]; rat lung, Free HCQ IV group): 9.4 µg/g | AUC0-72 of HCQ ([1]; rat lung, IT administration): 329 µg·h/g | Tmax of HCQ ([1]; rat lung, IT administration): 15 min | AUC0-72 of HCQ ([1]; rat lung, IV injection): 252 µg·h/g | Tmax of HCQ ([1]; rat lung, IV injection): 15 min

N#C[C@@]1(c2ccc3c(N)ncnn23)O[C@H](CO)[C@@H](O)[C@H]1O [GS-441524, (2R,3R,4S,5R)-2-(4-aminopyrrolo[2,1-f][1,2,4]triazin-7-yl)-3,4-dihydroxy-5-(hydroxymethyl) oxolane-2-carbonitrile]
EC50 [2]: 180 nM
